Holding throughout (type): cell-based, human
One assay deals with SOX2 in GICs (E6). Description: SOX2 immunostaining, SOX2/DAPI positive rate in GICs (E6). Particulars: 20 μmol/L OSMI-1, cultured 2 days; control 71±2%. How it is done: (§1) The extranuclear elimination of compound 8-dependent SOX2 is dependent on the extranuclear transport factor, Exportin (also known as CRM1). The cells were cultured for one day in the presence of Compound 8 (10 μM) and a CRM1-specific inhibitor leptomycin B (LMB, 150 nM), and GICs were immunostained with the SOX2 antibody. As a result, the SOX2/DAPI positive rate in GICs (E6) was as follows: Control: 95±2%, supplemented with Compound 8: 7±3%, supplemented with Compound 8+LMB: 87±9%; the SOX2/DAPI positive rate in GICs (E16) was as follows: Control: 72±11%, supplemented with compound 8: 0.5±1%, supplemented with Compound 8+LMB: 81±10%. The addition of LMB suppressed Compound 8-dependent extranuclear elimination of SOX2.
(§2) When UDP-GlcNAc was added after the chemical was added to GIC, reduced SOX2 expression in GICs and the cytotoxic activity of Compound 8 on GICs were neutralized (FIGS. 3 and 4). SOX2 K75A in which lysine 75 involved in the binding of CRM1 and SOX2 was substituted with alanine and SOX2 S248A in which the 0-GlcNAcylation target serine 248 was substituted with alanine were prepared, thereby establishing GICs that constitutively express these SOX2 mutants and wild-type SOX2 (SOX2 wt). After treatment with Compound 8, the localization of SOX2 was examined by immunostaining using an anti-FLAG antibody, and the viability of GICs expressing these mutants was examined by MTT assay (FIG. 5). In the presence of Compound 8, SOX2 K75A was present in the nucleus and partially neutralized the cytotoxic activity of Compound 8. SOX2 S248A was not retained in the nucleus by treatment with Compound 8, and no inhibitory effect on cytotoxic activity was observed. […] The SOX2/DAPI positive rate was as follows: GIC (E6): Control: 0%, SOX2 wt: 36±5%, SOX2 K75A: 63±5%, SOX2 S248A: 18±2%; GIC (E16): Control: 0%, SOX2 wt: 22±4%, SOX2 K75A: 58±6%, SOX2 S248A: 15±3%. Error bar: ±SD. Statistical processing is t-test. *P<0.05, **P<0.01, ***P<0.001. GIC was cultured for 2 days with Compound 8 (10 μmol/L) alone or together with UDP-GlcNAc (1 mmol/L), and immunostaining was performed for SOX2 and NESTIN. As a result, the addition of UDP-GlcNAc suppressed Compound 8-dependent extranuclear elimination of SOX2.
(§3) OSMI-1, which is an O-GlcNAc transferase (OGT)-specific inhibitor, suppresses GIC growth and SOX2 expression. (A) GICs were cultured for 3 days in the presence of various concentrations of OSMI-1, and cell growth was examined using MTT assay (FIG. 6). (B) The results of immunostaining for SOX2 and NESTIN using GICs cultured for 2 days in the presence of 20 μmol/L OSMI-1 and calculating the SOX2 positive rate (SOX2/DAPI) are shown below.

The subject of a further assay is SOX2 in GICs (E16). Description: SOX2 immunostaining, SOX2/DAPI positive rate in GICs (E16). Particulars: 20 μmol/L OSMI-1, cultured 2 days; control 65±5%. How it is done: as §1, §2, §3
A further assay deals with GICs. Description: GIC growth in the presence of OSMI-1 (MTT assay). Conditions: cultured 3 days, various concentrations of OSMI-1, FIG. 6. How it is done: as §3
(Tetrazolium assays rely on reduction of a dye to a coloured formazan, in cell work by metabolically active cells.)

`COc1ccccc1[C@@H](NS(=O)(=O)c1ccc2[nH]c(=O)ccc2c1)C(=O)N(Cc1ccco1)Cc1cccs1` [OSMI-1, reference compound]: in the assay with SOX2 in GICs (E6), the “SOX2 positive rate (SOX2/DAPI), GIC (E6)” value stood at 32±4%. The “SOX2 positive rate (SOX2/DAPI), GIC (E16)” value in the assay with SOX2 in GICs (E16) was determined as 30±5%. Moreover, the GIC growth entry in the assay on GICs was “suppresses”.

The record behind these values is patent US20210113540A1, “TREATMENT AGENT AND PHARMACEUTICAL COMPOSITION FOR GLIOMA” (NATIONAL UNIVERSITY CORPORATION HOKKAIDO UNIVERSITY, priority 2018, published 2021).
